Laboratory results published in US7767648B2, “Tissue specific prodrugs” (priority 2000, dated 2010).

What was measured:
[1] = system: TSU prostate cancer cell line; test: Killing of non-PSMA producing TSU prostate cancer cell line; type: cell-based, human
Description: The prodrugs are hydrolyzed by PSMA and release the corresponding Asp- or Glu-containing TG analogs or the TG analog itself, and also lack potent cytotoxicity when not metabolized by PSMA. Non-PSMA producing TSU-Pr1 human prostate cancer cell line is exposed to each of the prodrugs at doses that are approximately 50-times the LD50 for the corresponding free TG analog. Against the TSU prostate cancer cell line, 12ADT-Glu has an LD50 value for killing of ˜50 nM.

[2] = Stability of PSMA substrates in mouse plasma, 18 hour incubation, HPLC; type: in vitro ADME; details: 18 hour incubation in mouse plasma
Text: (§1) In order that the prodrugs can be administered systemically via the blood, their stability in sera must be sufficiently high to avoid hydrolysis or other degradative processes which may occur prior to the prodrugs reaching their target tissues. In addition to GGH activity, a human blood plasma glutamate carboxypeptidase (PGCP) that has significant sequence homology to PSMA and glutamate carboxypeptidase activity has been identified. Therefore, to assay hydrolysis by GGH and other serum carboxypeptidases like PGCP, the APA-Glu*Glu*Glu*Glu*Asp, APA-Glu*Glu*Glu*Glu*Gln, and APA-Glu*Glu*Glu*Glu*Glu substrates were incubated in human and mouse plasma and hydrolysis determined by HPLC analysis after an 18-hour incubation, as shown in Table 3. As noted, GGH efficiently hydrolyzes poly-γ-glutamate chains as well as poly-γ-glutamated folate and methotrexate. GGH, however, is unable to hydrolyze α-linked peptides.
(§2) In Tables 1-3, to simplify identification of the type of amino acid linkages employed, α-linkages are denoted by a hyphen (for example, Glu-Glu) and all side-chain linkages are denoted by a star (for example, Glu*Glu). The column labeled “% PSMA Hydrolysis” refers to the percentage of hydrolysis of a substrate to APA-Asp or to APS-Glu by purified PSMA. The column labeled “% APA-Asp or -Glu” refers to the percentage of hydrolysis of substrate to APA-Asp or APA-Glu. The column labeled “% Prodrug Remaining” refers to the area of the HPLC peak attributable to starting material divided by the areas of HPLC peaks attributable to starting material, intermediate products, and final products. […] “ND” means “not determined,” in that the experiment was not performed.

[3] = system: TSU cancer cell line; test: Inhibition of clonogenic survival of TSU cells in presence or absence of exogenous PSMA; type: cell-based; details: exogenous PSMA 10 micrograms/mL, FIG. 4
Description: FIG. 4 is a graph of the percentage inhibition of clonogenic survival of TSU cells exposed to various concentrations of APA-Glu*Glu*Glu*Glu*Asp in the presence or absence of PSMA.
The methotrexate analog sequence APA-Glu*Glu*Glu*Glu*Asp was contacted with the non-PSMA producing TSU cancer cell line in various amounts. Exogenous PSMA (10 micrograms/mL) was added to the media and the percent inhibition of clonogenic survival was monitored.

[4] = molecular target: PSMA (Homo sapiens, UniProt Q04609); test: Hydrolysis of methotrexate analog substrates by purified PSMA (HPLC); type: biochemical
Description: The extent to which various peptide substrates are hydrolyzed by PSMA was determined by synthesizing a series of methotrexate analogs including the 4-N[N-2,4-diamino-6-pteridinyl-methyl)-N-methylamino-benzoate] (APA) portion of methotrexate coupled to a variety of peptides. Poly-glutamated methotrexate is available from Schirks Laboratories in Jona, Switzerland.
A series of α-linked peptides were investigated for PSMA hydrolysis. […] In Tables 1-3, to simplify identification of the type of amino acid linkages employed, α-linkages are denoted by a hyphen (for example, Glu-Glu) and all side-chain linkages are denoted by a star (for example, Glu*Glu).
Substrate specificity for the pteroyl poly-γ-glutamyl carboxypeptidase (folate hydrolase) activity of PSMA was determined by synthesizing a series of γ-linked methotrexate analogs and assaying them for hydrolysis by PSMA.
as §2

[5] = Stability of PSMA substrates in human plasma, 18 hour incubation, HPLC; type: in vitro ADME; details: 18 hour incubation in human plasma
Text: as §1, §2

PSMA, sequence (Q04609 whole entry): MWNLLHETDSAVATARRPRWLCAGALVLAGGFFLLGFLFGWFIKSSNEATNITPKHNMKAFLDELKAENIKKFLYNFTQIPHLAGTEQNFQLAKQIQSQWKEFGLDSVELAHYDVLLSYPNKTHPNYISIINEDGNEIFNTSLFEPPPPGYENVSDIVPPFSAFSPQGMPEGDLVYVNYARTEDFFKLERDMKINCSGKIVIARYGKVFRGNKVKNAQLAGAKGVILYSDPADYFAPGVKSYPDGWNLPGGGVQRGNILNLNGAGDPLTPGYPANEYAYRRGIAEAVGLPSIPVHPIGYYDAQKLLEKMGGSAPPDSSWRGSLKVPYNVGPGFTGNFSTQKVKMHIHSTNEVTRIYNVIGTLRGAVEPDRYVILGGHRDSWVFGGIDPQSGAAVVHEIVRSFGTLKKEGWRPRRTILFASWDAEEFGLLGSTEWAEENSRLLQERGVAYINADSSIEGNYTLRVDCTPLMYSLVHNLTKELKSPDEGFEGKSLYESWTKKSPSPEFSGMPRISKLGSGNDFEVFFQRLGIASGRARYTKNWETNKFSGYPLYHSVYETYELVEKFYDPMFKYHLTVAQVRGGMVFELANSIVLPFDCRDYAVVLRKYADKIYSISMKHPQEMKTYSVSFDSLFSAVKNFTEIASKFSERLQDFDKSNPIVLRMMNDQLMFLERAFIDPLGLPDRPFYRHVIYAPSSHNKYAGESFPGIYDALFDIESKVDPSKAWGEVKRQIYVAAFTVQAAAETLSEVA

| Molecule | LD50 value for killing [1] | % APA-Glu or -Asp [2] [%] | selectivity, percent inhibition of clonogenic survival with versus without PSMA [3] | % hydrolysis after 24 hours ([4]; Table 2, γ-linked analogs, incubated with PSMA 24 hours) [%] | % hydrolysis after 48 hours ([4]; Table 2, γ-linked analogs, incubated with PSMA 48 hours) [%] | % PSMA hydrolysis 24 h ([4]; Table 3, hydrolysis of substrate to APA-Asp or APA-Glu by purified PSMA, 24 h) [%] | % PSMA hydrolysis 48 h ([4]; Table 3, hydrolysis of substrate to APA-Asp or APA-Glu by purified PSMA, 48 h) [%] | hydrolysis by PSMA (in words) ([4]; text summary of the tables) | remaining at 18 h ([5]; HPLC peak area of starting material over all peaks, read-out: % Prodrug Remaining) [%] | % APA-Glu or -Asp ([5]; hydrolysis of substrate to APA-Asp or APA-Glu) [%] |
| --- | --- | --- | --- | --- | --- | --- | --- | --- | --- | --- |
| 8-O-(12-[L-glutamylamino]-dodecanoyl)-8-O-debutanoylthapsigargin [12ADT-Glu] | approximately 50 nM | – | – | – | – | – | – | – | – | – |
| CN(Cc1cnc2nc(N)nc(N)c2n1)c1ccc(C(=O)N[C@@H](CCC(=O)N[C@@H](CCC(=O)N[C@@H](CCC(=O)N[C@@H](CCC(=O)N[C@@H](CC(=O)O)C(=O)O)C(=O)O)C(=O)O)C(=O)O)C(=O)O)cc1 [APA-Glu*Glu*Glu*Glu*Asp] | – | 72 | there is selectivity | 40.9 | 77.7 | 98 | 100 | to a greater extent after 24 hours than any of the γ-linked dipeptide analogs | 20 | 9 |
